Results: US20240254138A1, “TRICYCLIC PYRIMIDINES AS CYCLIN-DEPENDENT KINASE 7 (CDK7) INHIBITORS” (JANSSEN PHARMACEUTICA NV, priority 2021, published 2024)
Like-named read-outs stand apart in the source and are kept apart here.

Legend:
[1] = system: RNA Polymerase II Serine 5 phosphorylation in A549 cells overexpressing CDK7-mutant (C312S); assay: Imaging-based cellular RNA PolII Ser5 phosphorylation assay in A549 cells overexpressing CDK7-mutant (C312S); format: cell-based, human; conditions: RNA PolII Ser5 phosphorylation, averaged over all measurements; for CDK7_A549 mutant hCDK7(pIC50): A549 cells overexpressing CDK7-mutant (C312S); for IC50: Homo sapiens, A549, A549 cells overexpressing CDK7-mutant (C312S), read-out: CDK7_A549 mutant hCDK7(pIC50) (converted)
Method in brief: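 A549 cells overexpressing CDK7 C312S (with endogenous wild-type CDK7) were treated with compound for 3 h at 37 °C in 1% FBS medium. Phospho-Rpb1 CTD Ser5 was immunostained after fixation and imaged. IC50 came from curve fit of % control, normalised to DMSO and 10 μM reference-compound controls.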

[2] = system: RNA Polymerase II Serine 5 phosphorylation (Rpb1 CTD, downstream substrate of CDK7) in A549 cells; assay: Imaging-based cellular RNA PolII Ser5 phosphorylation assay in A549 cells; format: cell-based, human; conditions: wild-type CDK7, RNA PolII Ser5 phosphorylation, averaged over all measurements; for CDK7_A549 Wild-type CDK7 (pIC50): A549 cells; for IC50: Homo sapiens, A549, A549 cells, read-out: CDK7_A549 Wild-type CDK7 (pIC50) (converted)
Method in brief: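 A549 cells, seeded 1000/well in DMEM with 1% FBS and cultured 20 h, were treated with compound for 3 h at 37 °C. Ser5-phospho-Rpb1 CTD detected by immunofluorescence imaging after fixation and methanol permeabilization; IC50 from curve fit normalized to DMSO and 10 μM reference-compound controls.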

[3] = target: CDK7/cyclinH/MAT1 trimeric complex (Homo sapiens, UniProt P50613); assay: In vitro CDK7 assay, potency of irreversible covalent inhibitors (kinact/KI), coupled PK/LDH ADP readout at 340 nm
[4] = CDK7 (20 nM enz.) (KI, μM), 20 nM enzyme
[5] = read-out: CDK7 (20 nM enz.) (kinact, s^−1), 20 nM enzyme
[6] = read-out: CDK7 (20 nM enz.) (kinact/KI, M^−1*s^−1), 20 nM enzyme

CDK7/cyclinH/MAT1 trimeric complex, sequence (P50613 whole entry): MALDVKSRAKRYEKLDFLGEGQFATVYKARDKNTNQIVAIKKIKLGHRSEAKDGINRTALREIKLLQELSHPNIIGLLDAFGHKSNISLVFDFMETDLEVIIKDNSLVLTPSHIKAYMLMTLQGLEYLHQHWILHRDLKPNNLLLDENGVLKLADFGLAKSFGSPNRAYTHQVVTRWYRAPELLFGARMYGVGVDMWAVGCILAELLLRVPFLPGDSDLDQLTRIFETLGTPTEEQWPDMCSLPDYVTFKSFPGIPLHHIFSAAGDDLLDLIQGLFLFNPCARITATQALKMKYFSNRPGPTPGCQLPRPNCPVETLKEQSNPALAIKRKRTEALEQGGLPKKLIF
CDK7/cyclinH/MAT1 trimeric complex, sequence (P51946 whole entry partner): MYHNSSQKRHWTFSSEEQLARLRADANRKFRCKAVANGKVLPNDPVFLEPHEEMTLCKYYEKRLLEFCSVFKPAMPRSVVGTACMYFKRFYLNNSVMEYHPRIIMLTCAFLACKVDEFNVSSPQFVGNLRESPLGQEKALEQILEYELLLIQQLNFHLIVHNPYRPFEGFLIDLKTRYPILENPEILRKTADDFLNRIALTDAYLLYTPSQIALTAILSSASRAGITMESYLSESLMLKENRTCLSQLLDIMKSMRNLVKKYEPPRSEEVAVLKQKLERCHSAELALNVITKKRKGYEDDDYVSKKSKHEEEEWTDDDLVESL
CDK7/cyclinH/MAT1 trimeric complex, sequence (P51948 whole entry partner): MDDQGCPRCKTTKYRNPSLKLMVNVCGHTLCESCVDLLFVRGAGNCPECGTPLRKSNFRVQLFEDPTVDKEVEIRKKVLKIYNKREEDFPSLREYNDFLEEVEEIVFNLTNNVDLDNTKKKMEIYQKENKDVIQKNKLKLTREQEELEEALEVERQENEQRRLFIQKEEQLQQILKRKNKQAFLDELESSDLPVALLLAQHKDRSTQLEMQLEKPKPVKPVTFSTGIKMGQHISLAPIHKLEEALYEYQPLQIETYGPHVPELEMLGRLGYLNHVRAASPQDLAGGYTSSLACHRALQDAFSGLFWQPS

SMILES | IC50 [1] | IC50 [2] | Ki [3, 4] | kinact [3, 5] | kinact/KI [3, 6] | further results
C=CC(=O)N1CC(N2[C@@H]3CC[C@H]2C[C@@H](c2ccc4c(c2)Nc2nccc(N5CCOCC5)c2CO4)C3)C1 [Compound 68] | – | – | – | – | – | CDK7_A549 mutant hCDK7(pIC50) [1]: 5.14; CDK7_A549 Wild-type CDK7 (pIC50) [2]: 7.4; CDK7 (20 nM enz.) (kobs/[I], M^−1*s^−1) ([3]; 20 nM enzyme): 1369 M⁻¹ s⁻¹
CC#CC(=O)N1CC[C@@H](N2CC(c3cc4c(c(C5CC5)n3)OCc3c(N5CCOCC5)ccnc3N4)C2)C1 (single isomer, unassigned) [Compound 425] | > 10000 nM | 200 nM | 0.0971 µM | 2.48e-05 s⁻¹ | 255 M⁻¹ s⁻¹ | –
CC#CC(=O)N1CC[C@H](N2CCC(c3cc4c(c(C)n3)OCc3c(-c5cnn(C)c5)ccnc3N4)CC2)C1 (single isomer, unassigned) [Compound 304] | > 10000 nM | 129 nM | 0.111 µM | 4.09e-05 s⁻¹ | 369 M⁻¹ s⁻¹ | –
C#CCCN(C)C/C=C/C(=O)N1CC(N2CCC(c3cc(C)c4c(c3)Nc3nccc(N5CCOCC5)c3CO4)CC2)C1 [Compound 122] | > 10000 nM | 69.2 nM | – | – | – | kinact/KI ([3]; read-out: CDK7 (20 nM enz.) (kobs/[I], M^−1*s^−1), 20 nM enzyme): 1660 M⁻¹ s⁻¹
C=CC(=O)N1CC(N2CCC(c3ccc4c(c3)Nc3nccc(-c5cnc6[nH]ccc6c5)c3CO4)CC2)C1 [Compound 31] | > 10000 nM | 437 nM | – | – | – | Ki ([3]; CDK7 (KI(μM)), […], 1 mM ATP, room temperature, averaged values over all measurements): 0.175 µM; kinact ([3]; read-out: CDK7 (kinact, s^−1), kinact = maximal rate of inactivation, 1 mM ATP, room temperature, averaged values over all measurements): 0.000112 s⁻¹; kinact/KI ([3]; read-out: CDK7 (kinact/KI, M^−1*s^−1), potency of irreversible covalent inhibitors, 1 mM ATP, room temperature, averaged values over all measurements): 638 M⁻¹ s⁻¹
C=CC(=O)N1CCC(N2CC(c3cc(F)c4c(c3)Nc3nccc(-c5cnn(C)c5)c3CO4)C2)CC1 [Compound 117] | 7760 nM | 126 nM | 0.0512 µM | 4.56e-05 s⁻¹ | 891 M⁻¹ s⁻¹ | –
C=CC(=O)N1CC(c2ncc(-c3cc(C)c4c(c3)Nc3nccc(N5CCS(=O)(=O)CC5)c3CO4)cn2)C1 [Compound 108] | > 10000 nM | 933 nM | 0.57 µM | 5.75e-05 s⁻¹ | 101 M⁻¹ s⁻¹ | –
CC#CC(=O)N1CCC(N2CC(c3cc4c(c(C(F)(F)F)n3)OCc3c(N5CCOCC5)ccnc3N4)C2)CC1 [Compound 490] | 3310 nM | 74.1 nM | – | – | 473 M⁻¹ s⁻¹ | –
CC#CC(=O)N1CC[C@@H](N2CC(c3cc(C)c4c(c3)Nc3nccc(N5CCOCC5)c3[C@H](C)O4)C2)C1 (single isomer, unassigned) [Compound 284] | > 10000 nM | 2040 nM | 2 µM | 3.49e-05 s⁻¹ | 17.4 M⁻¹ s⁻¹ | –
C=CC(=O)N1CC(N2CCN(c3cc4c(c(C)n3)OCc3c(N5CCOCC5)ccnc3N4)CC2)C1 [Compound 237] | > 10000 nM | 132 nM | 0.0731 µM | 3.42e-05 s⁻¹ | 468 M⁻¹ s⁻¹ | –
C=CC(=O)N1CC(N2CC(c3cc4c(c(CCC)n3)OCc3c(N5CCOCC5)ccnc3N4)C2)C1 [Compound 350] | 10000 nM | 81.3 nM | 0.025 µM | 4.4e-05 s⁻¹ | 1760 M⁻¹ s⁻¹ | –
C=CC(=O)N1CCC(N2CC(c3cc4c(c(C5CC5)n3)OCc3c(N5CCOCC5)ccnc3N4)C2)CC1 [Compound 341] | – | – | 0.0443 µM | – | – | CDK7_A549 mutant hCDK7(pIC50) [1]: 5.64; CDK7_A549 Wild-type CDK7 (pIC50) [2]: 7.35; CDK7 (20 nM enz.) (kinact, s^−1) ([3]; 20 nM enzyme): 2.9e-05 s⁻¹; CDK7 (20 nM enz.) (kinact/KI, M^−1*s^−1) ([3]; 20 nM enzyme): 655.075 M⁻¹ s⁻¹
C=CC(=O)N1CC(N2CC[C@@H](c3cc4c(c(C)n3)O[C@H](C)c3c(N5CCOCC5)ccnc3N4)C2)C1 (single isomer, unassigned) [Compound 319] | > 10000 nM | 77.6 nM | 0.047 µM | 6.15e-05 s⁻¹ | 1310 M⁻¹ s⁻¹ | –
C=CC(=O)N1CC(N2CCC(c3ccc4c(c3)Nc3nccc(N5CCOCC5)c3CO4)CC2)C1 [Compound 107] | > 10000 nM | 110 nM | 0.056 µM | 5.28e-05 s⁻¹ | 943 M⁻¹ s⁻¹ | –
CC#CC(=O)N1CC[C@@H](N2CC(c3cc4c(c(C5CC5)n3)O[C@H](C)c3c(N5CCOCC5)ccnc3N4)C2)C1 (single isomer, unassigned) [Compound 464] | > 10000 nM | 7590 nM | 4.03 µM | 2.27e-05 s⁻¹ | 5.64 M⁻¹ s⁻¹ | –
